The values that follow come from patent US11230593B2, “Compositions and methods for treating and preventing influenza” (VISTERRA, INC., priority 2019, dated 2022).

Converted amounts (≈) assume the structure as drawn. Read-outs that look alike come from different tables or passages of the source.

What all share (type): cell-based, Influenza A
For assay [1], the system named is Victoria/3/75-Os-R (H3N2). Nature of the assay: microbe, parasite or virus in culture.
For the next assay, the system named is WSN/33 H274Y (H1N1).
Assay [2] concerns Pennsylvania/30/2009 H275Y, I223R (H1N1).
Assay [3] concerns Hawaii/31/2007 H275Y (H1N1).
In assay [4] the test system is Mississippi/3/2001 H275Y (H1N1).
The subject of assay [5] is Hong Kong/2369/2009 H275Y (H1N1).

The term EC50 denotes the concentration needed to bring the measured effect to its halfway point. High values mean lower potency in that assay, low ones higher potency in that assay. With `NC(=O)c1ncn([C@@H]2O[C@H](CO)[C@@H](O)[C@H]2O)n1` [Ribavirin, ribavirin], the EC50 in assay [1] (Influenza A virus, H3N2, MDCK) was determined as 5.4 µg/mL (≈ 22.1 µM); with WSN/33 H274Y (H1N1) it was 3.7 µg/mL (≈ 15.2 µM); in assay [2] it was 5.2 µg/mL (≈ 21.3 µM); in assay [3], 7.2 µg/mL (≈ 29.5 µM); in assay [4], 18 µg/mL (≈ 73.7 µM); in assay [5], 28 µg/mL (≈ 115 µM).
As to Oseltamivir acid [Oseltamivir (OSE)], the EC50 was above 50 µg/mL in assay [1]; 28 µg/mL in the assay with WSN/33 H274Y (H1N1); above 50 µg/mL in assay [2]; above 21 µg/mL in assay [3]; above 50 µg/mL in assay [4]. Also, the SI was 0 in assay [1]; above 1.8 in the assay with WSN/33 H274Y (H1N1); 0 in assay [2]; below 2.4 in assay [3]; 0 in assay [4]; below 6.4 in assay [5].
